Laboratory results as given in ChEMBL document CHEMBL1148173, “Three New Onnamide Congeners from the Okinawan Marine Sponge Theonella Sp” (J Nat Prod, 1993).
In brackets after ≈: the same amount, converted by molar mass.

How the values were obtained:
L1210 = assay: Cytotoxicity against mouse L1210 cells; assay type: functional, cell-based
KB = assay: Cytotoxicity against human KB cells; assay type: functional, cell-based

| Compound | IC50 (L1210) | IC50 (KB) |
| --- | --- | --- |
| C=C1C[C@](OC)([C@H](O)C(=O)N[C@H]2OCO[C@H]3[C@@H]2O[C@H](C[C@H](O)CCC/C=C/C=C\C=C\C(=O)N[C@@H](CCCNC(=N)N)C(=O)O)C(C)(C)[C@@H]3OC)O[C@H](C)[C@@H]1C [4Z-ONNAMIDE A] | 1.5 ng/mL (≈ 1.89 nM) | 2.9 ng/mL (≈ 3.65 nM) |
| C=C1C[C@](OC)([C@H](O)C(=O)N[C@H]2OCO[C@H]3[C@@H]2O[C@H](CC(=O)CCCCC/C=C/C=C/C(=O)N[C@@H](CCCNC(=N)N)C(=O)O)C(C)(C)[C@@H]3OC)O[C@H](C)[C@@H]1C [6,7-DIHYDRO-11-OXO-ONNAMIDE A] | 16 ng/mL (≈ 20.2 nM) | 23 ng/mL (≈ 29 nM) |
| C=C1C[C@](OC)([C@H](O)C(=O)N[C@H]2OCO[C@H]3[C@@H]2O[C@H](C[C@H](O)CCCCC/C=C/C=C/C(=O)N[C@@H](CCCNC(=N)N)C(=O)O)C(C)(C)[C@@H]3OC)O[C@H](C)[C@@H]1C [6,7-DIHYDRO-ONNAMIDE A] | 4.6 ng/mL (≈ 5.78 nM) | 5 ng/mL (≈ 6.28 nM) |
| C=C1C[C@](OC)([C@H](O)C(=O)N[C@H]2OCO[C@H]3[C@@H]2O[C@H](C[C@H](O)CCC/C=C/C=C/C=C/C(=O)N[C@@H](CCCNC(=N)N)C(=O)O)C(C)(C)[C@@H]3OC)O[C@H](C)[C@@H]1C [ONNAMIDE A] | 2 ng/mL (≈ 2.52 nM) | 3.6 ng/mL (≈ 4.53 nM) |
| C=C1C[C@](OC)([C@H](O)C(=O)N[C@H]2OCO[C@H]3[C@@H]2O[C@H](CC(=O)CCC/C=C/C=C/C=C/C(=O)N[C@@H](CCCNC(=N)N)C(=O)O)C(C)(C)[C@@H]3OC)O[C@H](C)[C@@H]1C [11-OXO-ONNAMIDE A] | 9.2 ng/mL (≈ 11.6 nM) | 13 ng/mL (≈ 16.4 nM) |
